# Assays:
# Assay in all cases: Test B preemergence/postemergence greenhouse plant response rating 0 to 10
# wheat = type: in vivo, Triticum aestivum; details: 0 to 10 scale
# From the text: (§1) Seeds of barley (Hordeum vulgare), barnyardgrass (Echinochloa crus-galli), bedstraw (Galium aparine), blackgrass (Alopecurus myosuroides), […] (Bromus secalinus), chickweed (Stellaria media), cocklebur (Xanthium pensylvanicum), corn (Zea mays), cotton (Gossypium hirsutum), crabgrass (Digitaria spp.), giant foxtail (Setaria faberii), lambsquarters (Chenopodium album), morningglory (Ipomoea hederacea), rape (Brassica napus), rice (Oryza sativa), sorghum (Sorghum bicolor), soybean (Glycine max), sugar beet (Beta vulgaris), velvetleaf (Abutilon theophrasti), wheat (Triticum aestivum), wild buckwheat (Polygonum convolvulus), and wild oat (Avena fatua) and purple nutsedge. (Cyperus rotundus) tubers were planted and treated preemergence with test chemicals dissolved in a non-phytotoxic solvent. At the same time, these crop and weed species were also treated with postemergence applications of test chemicals. Plants ranged in height from two to eighteen cm (one to four leaf stage) for postemergence treatments. Treated plants and controls were maintained in a greenhouse for twelve to sixteen days, after which all species were compared to controls and visually evaluated. […] A dash (-) response means no test result.
# velvetleaf = type: in vivo, Abutilon theophrasti; details: 0 to 10 scale
# From the text: as §1
# blackgrass = type: in vivo, Alopecurus myosuroides; details: 0 to 10 scale
# From the text: as §1
# giant foxtail = type: in vivo, Setaria faberii; details: 0 to 10 scale
# From the text: as §1
# soybean = type: in vivo, Glycine max; details: 0 to 10 scale
# From the text: as §1
# sugar beet = type: in vivo, Beta vulgaris; details: 0 to 10 scale
# From the text: as §1
# rape = type: in vivo, Brassica napus; details: 0 to 10 scale
# From the text: as §1
# crabgrass = type: in vivo, Digitaria spp.; details: 0 to 10 scale
# From the text: as §1
# rice = type: in vivo, Oryza sativa; details: 0 to 10 scale
# From the text: as §1
# barnyardgrass = type: in vivo, Echinochloa crus-galli; details: 0 to 10 scale
# From the text: as §1
# cocklebur = type: in vivo, Xanthium pensylvanicum; details: 0 to 10 scale
# From the text: as §1
# purple nutsedge = type: in vivo, Cyperus rotundus; details: 0 to 10 scale
# From the text: as §1
# wild oat = type: in vivo, Avena fatua; details: 0 to 10 scale
# From the text: as §1
# wild buckwheat = type: in vivo, Polygonum convolvulus; details: 0 to 10 scale
# From the text: as §1
# lambsquarters = type: in vivo, Chenopodium album; details: 0 to 10 scale
# From the text: as §1
# cotton = type: in vivo, Gossypium hirsutum; details: 0 to 10 scale
# From the text: as §1
# chickweed = type: in vivo, Stellaria media; details: Rate 200 g/ha, 0 to 10 scale
# From the text: as §1
# morningglory = type: in vivo, Ipomoea hederacea; details: 0 to 10 scale
# From the text: as §1
# sorghum = type: in vivo, Sorghum bicolor; details: 0 to 10 scale
# From the text: as §1
# barley = type: in vivo, Hordeum vulgare; details: 0 to 10 scale
# From the text: as §1
# cheatgrass = type: in vivo, Bromus secalinus; details: 0 to 10 scale
# From the text: as §1
# bedstraw = type: in vivo, Galium aparine; details: 0 to 10 scale
# From the text: as §1
# corn = type: in vivo, Zea mays; details: 0 to 10 scale
# From the text: as §1
structure (smiles),measurement,setting,value
Clc1ccc(-c2nn3c(c2Cl)CCCC3)c(Cl)c1 [Compound 35],"Plant response rating, Wheat","wheat; POSTEMERGENCE, Rate 50 g/ha",2
same,"Plant response rating, Wheat","wheat; PREEMERGENCE, Rate 50 g/ha",0
same,"Plant response rating, Wheat","wheat; Rate 200 g/ha, POSTEMERGENCE",5
same,"Plant response rating, Wheat","wheat; Rate 200 g/ha, PREEMERGENCE",7
same,"Plant response rating, Velvetleaf","velvetleaf; POSTEMERGENCE, Rate 50 g/ha",8
same,"Plant response rating, Velvetleaf","velvetleaf; PREEMERGENCE, Rate 50 g/ha",2
same,"Plant response rating, Velvetleaf","velvetleaf; Rate 200 g/ha, POSTEMERGENCE",10
same,"Plant response rating, Velvetleaf","velvetleaf; Rate 200 g/ha, PREEMERGENCE",10
same,"Plant response rating, Blackgrass","blackgrass; POSTEMERGENCE, Rate 50 g/ha",3
same,"Plant response rating, Blackgrass","blackgrass; POSTEMERGENCE, Rate 200 g/ha",4
same,"Plant response rating, Blackgrass","blackgrass; PREEMERGENCE, Rate 50 g/ha",0
same,"Plant response rating, Blackgrass","blackgrass; Rate 200 g/ha, PREEMERGENCE",4
same,"Plant response rating, Giant foxtail","giant foxtail; POSTEMERGENCE, Rate 50 g/ha",4
same,"Plant response rating, Giant foxtail","giant foxtail; PREEMERGENCE, Rate 50 g/ha",2
same,"Plant response rating, Giant foxtail","giant foxtail; Rate 200 g/ha, POSTEMERGENCE",7
same,"Plant response rating, Giant foxtail","giant foxtail; Rate 200 g/ha, PREEMERGENCE",9
same,"Plant response rating, Soybean","soybean; POSTEMERGENCE, Rate 50 g/ha",4
same,"Plant response rating, Soybean","soybean; PREEMERGENCE, Rate 50 g/ha",0
same,"Plant response rating, Soybean","soybean; Rate 200 g/ha, POSTEMERGENCE",5
same,"Plant response rating, Soybean","soybean; Rate 200 g/ha, PREEMERGENCE",3
same,"Plant response rating, Sugar beet","sugar beet; POSTEMERGENCE, Rate 50 g/ha",9
same,"Plant response rating, Sugar beet","sugar beet; PREEMERGENCE, Rate 50 g/ha",0
same,"Plant response rating, Sugar beet","sugar beet; Rate 200 g/ha, POSTEMERGENCE",10
same,"Plant response rating, Sugar beet","sugar beet; Rate 200 g/ha, PREEMERGENCE",4
same,"Plant response rating, Rape","rape; POSTEMERGENCE, Rate 50 g/ha",6
same,"Plant response rating, Rape","rape; PREEMERGENCE, Rate 50 g/ha",0
same,"Plant response rating, Rape","rape; Rate 200 g/ha, POSTEMERGENCE",9
same,"Plant response rating, Crabgrass","crabgrass; POSTEMERGENCE, Rate 50 g/ha",3
same,"Plant response rating, Crabgrass","crabgrass; POSTEMERGENCE, Rate 200 g/ha",6
same,"Plant response rating, Crabgrass","crabgrass; PREEMERGENCE, Rate 50 g/ha",4
same,"Plant response rating, Crabgrass","crabgrass; Rate 200 g/ha, PREEMERGENCE",9
same,"Plant response rating, Rice","rice; POSTEMERGENCE, Rate 50 g/ha",5
same,"Plant response rating, Rice","rice; PREEMERGENCE, Rate 50 g/ha",0
same,"Plant response rating, Rice","rice; Rate 200 g/ha, POSTEMERGENCE",6
same,"Plant response rating, Rice","rice; Rate 200 g/ha, PREEMERGENCE",2
same,"Plant response rating, Barnyardgrass","barnyardgrass; POSTEMERGENCE, Rate 50 g/ha",5
same,"Plant response rating, Barnyardgrass","barnyardgrass; POSTEMERGENCE, Rate 200 g/ha",9
same,"Plant response rating, Barnyardgrass","barnyardgrass; PREEMERGENCE, Rate 50 g/ha",1
same,"Plant response rating, Barnyardgrass","barnyardgrass; Rate 200 g/ha, PREEMERGENCE",7
same,"Plant response rating, Cocklebur","cocklebur; POSTEMERGENCE, Rate 50 g/ha",5
same,"Plant response rating, Cocklebur","cocklebur; POSTEMERGENCE, Rate 200 g/ha",7
same,"Plant response rating, Cocklebur","cocklebur; PREEMERGENCE, Rate 50 g/ha",0
same,"Plant response rating, Cocklebur","cocklebur; Rate 200 g/ha, PREEMERGENCE",2
same,"Plant response rating, Nutsedge","purple nutsedge; POSTEMERGENCE, Rate 50 g/ha",1
same,"Plant response rating, Nutsedge","purple nutsedge; PREEMERGENCE, Rate 50 g/ha",0
same,"Plant response rating, Nutsedge","purple nutsedge; Rate 200 g/ha, POSTEMERGENCE",3
same,"Plant response rating, Nutsedge","purple nutsedge; Rate 200 g/ha, PREEMERGENCE",2
same,"Plant response rating, Wild oat","wild oat; POSTEMERGENCE, Rate 50 g/ha",3
same,"Plant response rating, Wild oat","wild oat; PREEMERGENCE, Rate 50 g/ha",0
same,"Plant response rating, Wild oat","wild oat; Rate 200 g/ha, POSTEMERGENCE",4
same,"Plant response rating, Wild buckwheat","wild buckwheat; POSTEMERGENCE, Rate 50 g/ha",6
same,"Plant response rating, Wild buckwheat","wild buckwheat; PREEMERGENCE, Rate 50 g/ha",0
same,"Plant response rating, Wild buckwheat","wild buckwheat; Rate 200 g/ha, POSTEMERGENCE",10
same,"Plant response rating, Wild buckwheat","wild buckwheat; Rate 200 g/ha, PREEMERGENCE",1
same,"Plant response rating, Lambsquarter","lambsquarters; POSTEMERGENCE, Rate 50 g/ha",9
same,"Plant response rating, Lambsquarter","lambsquarters; PREEMERGENCE, Rate 50 g/ha",10
same,"Plant response rating, Lambsquarter","lambsquarters; Rate 200 g/ha, POSTEMERGENCE",10
same,"Plant response rating, Lambsquarter","lambsquarters; Rate 200 g/ha, PREEMERGENCE",10
same,"Plant response rating, Cotton","cotton; POSTEMERGENCE, Rate 50 g/ha",9
same,"Plant response rating, Cotton","cotton; POSTEMERGENCE, Rate 200 g/ha",10
same,"Plant response rating, Cotton","cotton; PREEMERGENCE, Rate 50 g/ha",0
same,"Plant response rating, Cotton","cotton; Rate 200 g/ha, PREEMERGENCE",4
same,"Plant response rating, Chickweed",chickweed; POSTEMERGENCE,3
same,"Plant response rating, Chickweed",chickweed; PREEMERGENCE,9
same,"Plant response rating, Morningglory","morningglory; POSTEMERGENCE, Rate 50 g/ha",5
same,"Plant response rating, Morningglory","morningglory; PREEMERGENCE, Rate 50 g/ha",0
same,"Plant response rating, Morningglory","morningglory; Rate 200 g/ha, POSTEMERGENCE",7
same,"Plant response rating, Morningglory","morningglory; Rate 200 g/ha, PREEMERGENCE",2
same,"Plant response rating, Sorghum","sorghum; POSTEMERGENCE, Rate 50 g/ha",5
same,"Plant response rating, Sorghum","sorghum; PREEMERGENCE, Rate 50 g/ha",0
same,"Plant response rating, Sorghum","sorghum; Rate 200 g/ha, POSTEMERGENCE",6
same,"Plant response rating, Sorghum","sorghum; Rate 200 g/ha, PREEMERGENCE",3
same,"Plant response rating, Barley","barley; POSTEMERGENCE, Rate 50 g/ha",2
same,"Plant response rating, Barley","barley; POSTEMERGENCE, Rate 200 g/ha",4
same,"Plant response rating, Barley","barley; PREEMERGENCE, Rate 50 g/ha",0
same,"Plant response rating, Barley","barley; Rate 200 g/ha, PREEMERGENCE",0
same,"Plant response rating, Cheatgrass","cheatgrass; POSTEMERGENCE, Rate 50 g/ha",3
same,"Plant response rating, Cheatgrass","cheatgrass; POSTEMERGENCE, Rate 200 g/ha",5
same,"Plant response rating, Cheatgrass","cheatgrass; PREEMERGENCE, Rate 50 g/ha",1
same,"Plant response rating, Cheatgrass","cheatgrass; Rate 200 g/ha, PREEMERGENCE",5
same,"Plant response rating, Bedstraw","bedstraw; POSTEMERGENCE, Rate 50 g/ha",7
same,"Plant response rating, Bedstraw","bedstraw; POSTEMERGENCE, Rate 200 g/ha",9
same,"Plant response rating, Bedstraw","bedstraw; PREEMERGENCE, Rate 50 g/ha",0
same,"Plant response rating, Bedstraw","bedstraw; Rate 200 g/ha, PREEMERGENCE",8
same,"Plant response rating, Corn","corn; POSTEMERGENCE, Rate 50 g/ha",4
same,"Plant response rating, Corn","corn; POSTEMERGENCE, Rate 200 g/ha",7
same,"Plant response rating, Corn","corn; PREEMERGENCE, Rate 50 g/ha",0
same,"Plant response rating, Corn","corn; Rate 200 g/ha, PREEMERGENCE",3

# Reference: patent publication US6358885B1, “Substituted phenylheterocyclic herbicides” (Mississippi State University, priority 1992, dated 2002)
